Experimental findings from patent US10759813B2, “Neprilysin inhibitors” (THERAVANCE BIOPHARMA R&D IP, LLC, priority 2010, dated 2020) are described below.

Structures are written as SMILES. Where only a bound is given, the exact number is not on record here.

One may read the pKi as the Ki on a negative log10 scale, so that one unit is a factor of ten. For orientation: Ki means a dissociation constant, usually derived from enzyme kinetics or from competition with a known ligand.

Chain of human neprilysin (EC 3.4.24.11; NEP) (P08473 52-750): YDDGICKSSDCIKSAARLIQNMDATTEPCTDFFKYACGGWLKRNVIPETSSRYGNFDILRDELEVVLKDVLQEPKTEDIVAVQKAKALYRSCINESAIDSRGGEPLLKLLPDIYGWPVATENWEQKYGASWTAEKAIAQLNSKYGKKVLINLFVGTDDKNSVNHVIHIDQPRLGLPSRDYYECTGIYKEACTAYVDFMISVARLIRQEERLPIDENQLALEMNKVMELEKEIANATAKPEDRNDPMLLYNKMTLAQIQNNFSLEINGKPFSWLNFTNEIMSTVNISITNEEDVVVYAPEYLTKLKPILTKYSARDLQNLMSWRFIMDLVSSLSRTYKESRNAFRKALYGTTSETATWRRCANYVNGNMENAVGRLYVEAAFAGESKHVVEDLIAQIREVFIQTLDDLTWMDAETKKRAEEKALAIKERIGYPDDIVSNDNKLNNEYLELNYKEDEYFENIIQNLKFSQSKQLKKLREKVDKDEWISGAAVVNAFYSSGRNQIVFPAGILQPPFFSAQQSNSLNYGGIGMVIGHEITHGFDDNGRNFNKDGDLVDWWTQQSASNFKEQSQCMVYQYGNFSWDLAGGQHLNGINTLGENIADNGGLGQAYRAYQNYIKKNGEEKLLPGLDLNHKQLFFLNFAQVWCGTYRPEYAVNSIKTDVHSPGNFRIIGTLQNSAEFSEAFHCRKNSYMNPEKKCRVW

In the assay the target is human neprilysin (EC 3.4.24.11; NEP) (Homo sapiens (Human), UniProt P08473). Kind of assay: In vitro enzyme inhibition assay at human NEP (fluorogenic peptide substrate). It counts as biochemical. Conditions: pKi values at human NEP, recombinant human NEP. Summed up:
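pKi derived from apparent Ki fitted as v=v0/[1+(I/K′)] to Ex320/Em405 fluorescence. Compounds (pM to 10 μM) sat with recombinant human enzyme 30 min at 37 °C before 10 μM fluorogenic Mca peptide was added in HEPES pH 7.5 buffer with 10 μM ZnSO4; 20 min reaction, acetic acid quench.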
On to `O=C(N[C@H](Cc1ccc(-c2cccc(Cl)c2)cc1)C[C@@H](O)C(=O)O)c1nn(-c2ccccc2)c(=O)[nH]1` [Example 18-47, (2R,4R)-5-(3′-Chlorobiphenyl-4-yl)-2-hydroxy-4-[(5-oxo-1-phenyl-4,5-dihydro-1H-[1,2,4]triazole-3-carbonyl)-amino]-pentanoic acid], for which the pKi is given as no less than 9.0.
As for `O=C(N[C@H](Cc1ccc(-c2cccc(Cl)c2)cc1)C[C@@H](O)C(=O)O)c1ccc(=O)n(Cc2ccccc2)n1` [Example 18-48, (2R,4R)-4-[(1-Benzyl-6-oxo-1,6-dihydro-pyridazine-3-carbonyl)-amino]-5-(3′-chlorobiphenyl-4-yl)-2-hydroxy-pentanoic acid], the Ki was 1.26 to 10 nM.
As to `O=C(N[C@H](Cc1ccc(-c2cccc(Cl)c2)cc1)C[C@@H](O)C(=O)O)c1ccc(=O)n(-c2ccccc2)n1` [Example 18-49, (2R,4R)-5-(3′-Chlorobiphenyl-4-yl)-2-hydroxy-4-[(6-oxo-1-phenyl-1,6-dihydro-pyridazine-3-carbonyl)-amino]-pentanoic acid], the Ki was 1.26 to 10 nM.
On to `O=C(N[C@H](Cc1ccc(-c2cccc(Cl)c2)cc1)C[C@@H](O)C(=O)O)c1ccc(O)nn1` [Example 18-50, (2R,4R)-5-(3′-Chlorobiphenyl-4-yl)-2-hydroxy-4-[(6-hydroxy-pyridazine-3-carbonyl)-amino]-pentanoic acid], for which the pKi is recorded as no less than 9.0.
Still for that read-out and setting: under `O=C(N[C@H](Cc1ccc(-c2cc(Cl)ccc2Cl)cc1)C[C@@H](O)C(=O)O)c1cn(O)nn1` [Example 19-1, (2R,4R)-5-(2′,5′-Dichlorobiphenyl-4-yl)-2-hydroxy-4-[(1-hydroxy-1H-[1,2,3]triazole-4-carbonyl)-amino]-pentanoic acid] stands no less than 9.0; under `O=C(N[C@H](Cc1ccc(-c2cc(Cl)ccc2F)cc1)C[C@@H](O)C(=O)O)c1cn(O)nn1` [Example 19-6, (2R,4R)-5-(5′-Chloro-2′-fluorobiphenyl-4-yl)-2-hydroxy-4[(1-hydroxy-1H-[1,2,3]triazole-4-carbonyl)-amino]-pentanoic acid], no less than 9.0; under `Cc1ccc(Cl)cc1-c1ccc(C[C@H](C[C@@H](O)C(=O)O)NC(=O)c2cn(O)nn2)cc1` [Example 19-12, (2R,4R)-5-(5′-Chloro-2′-methyl-biphenyl-4-yl)-2-hydroxy-4-[(1-hydroxy-1H-[1,2,3]triazole-4-carbonyl)-amino]-pentanoic acid], no less than 9.0.
Same read-out and setting: to `COc1ccccc1-c1ccc(C[C@H](C[C@@H](O)C(=O)O)NC(=O)c2cn(O)nn2)cc1` [Example 19-17, (2R,4R)-2-Hydroxy-4-[(1-hydroxy-1H-[1,2,3]triazole-4-carbonyl)-amino]-5-(2′-methoxy-biphenyl-4-yl)-pentanoic acid] belongs no less than 9.0.
The same measure, in the same setting: under `CC(=O)OCOn1nncc1C(=O)N[C@H](Cc1ccc(-c2cc(Cl)ccc2F)cc1)C[C@@H](O)C(=O)O` [Example 19-18, (2R,4R)-4-[(3-Acetoxymethoxy-3H-[1,2,3]triazole-4-carbonyl)-amino]-5-(5′-chloro-2′-fluoro-biphenyl-4-yl)-2-hydroxy-pentanoic acid] stands no less than 9.0.
Consider `COc1cc(C(=O)N[C@H](Cc2ccc(-c3cc(Cl)ccc3F)cc2)C[C@@H](O)C(=O)O)on1` [Example 19-19, (2R,4R)-5-(5′-Chloro-2′-fluoro-biphenyl-4-yl)-2-hydroxy-4-[(3-methoxy-isoxazole-5-carbonyl)-amino]-pentanoic acid], for which the pKi is on record as no less than 9.0.
`O=C(N[C@H](Cc1ccc(-c2cc(Cl)ccc2F)cc1)C[C@@H](O)C(=O)O)c1nn(-c2ccccc2)c(=O)[nH]1` [Example 19-20, (2R,4R)-5-(5′-Chloro-2′-fluoro-biphenyl-4-yl)-2-hydroxy-4-[(5-oxo-1-phenyl-4,5-dihydro-1H-[1,2,4]triazole-3-carbonyl)-amino]-pentanoic acid]: the negative logarithm of the Ki (pKi) is given as no less than 9.0.
Turning to `CC(=O)OCOn1nnc2ccc(C(=O)N[C@H](Cc3ccc(-c4cc(Cl)ccc4Cl)cc3)C[C@@H](O)C(=O)O)cc21` [Example 19-21, (2R,4R)-4-[(3-Acetoxymethoxy-3H-benzotriazole-5-carbonyl)-amino]-5-(2′,5-dichloro-biphenyl-4-yl)-2-hydroxy-pentanoic acid], the Ki is no more than 1 nM.
In the case of `O=C(N[C@H](Cc1ccc(-c2ccccc2)cc1Cl)C[C@@H](O)C(=O)O)c1c[nH]nn1` [Example 20-1, (2R,4R)-5-(3-Chlorobiphenyl-4-yl)-2-hydroxy-4-[(1H-[1,2,3]triazole-4-carbonyl)-amino]-pentanoic acid], the pKi was no less than 9.0.
Consider `O=C(N[C@H](Cc1ccc(-c2ccccc2)cc1Cl)C[C@@H](O)C(=O)O)c1cnn[nH]1` [Example 20-2, (2R,4R)-5-(3-Chlorobiphenyl-4-yl)-2-hydroxy-4-[(3H-[1,2,3]triazole-4-carbonyl)-amino]-pentanoic acid], for which the pKi is no less than 9.0.
As to `O=C(N[C@H](Cc1ccc(-c2ccccc2)cc1Cl)C[C@@H](O)C(=O)O)c1nn(-c2cccc(Cl)c2)c(=O)[nH]1` [Example 20-3, (2R,4R)-5-(3-Chloro-biphenyl-4-yl)-4-{[1-(3-chloro-phenyl)-5-oxo-4,5-dihydro-1H-[1,2,4]triazole-3-carbonyl]-amino}-2-hydroxy-pentanoic acid], the pKi is recorded as no less than 9.0.
The same measure, in the same setting: to `O=C(N[C@H](Cc1ccc(-c2ccccc2)cc1Cl)C[C@@H](O)C(=O)O)c1nn(-c2ccccc2)c(=O)[nH]1` [Example 20-4, (2R,4R)-5-(3-Chloro-biphenyl-4-yl)-2-hydroxy-4-[(5-oxo-1-phenyl-4,5-dihydro-1H-[1,2,4]triazole-3-carbonyl)-amino]-pentanoic acid] belongs no less than 9.0; to `CN(C)C(=O)c1cc(C(=O)N[C@H](Cc2ccc(-c3ccccc3)cc2Cl)C[C@@H](O)C(=O)O)[nH]n1` [Example 20-5, (2R,4R)-5-(3-Chloro-biphenyl-4-yl)-4-[(5-dimethylcarbamoyl-2H-pyrazole-3-carbonyl)-amino]-2-hydroxy-pentanoic acid], no less than 9.0.
Same read-out and setting: under `COCCN(C)C(=O)c1cc(C(=O)N[C@H](Cc2ccc(-c3ccccc3)cc2Cl)C[C@@H](O)C(=O)O)[nH]n1` [Example 20-6, (2R,4R)-5-(3-Chloro-biphenyl-4-yl)-2-hydroxy-4-({5-[(2-methoxy-ethyl)-methyl-carbamoyl]-2H-pyrazole-3-carbonyl}-amino)-pentanoic acid] stands no less than 9.0.
Consider `CC(=O)c1cc(C(=O)N[C@H](Cc2ccc(-c3ccccc3)cc2Cl)C[C@@H](O)C(=O)O)[nH]n1` [Example 20-7, (2R,4R)-4-[(5-Acetyl-2H-pyrazole-3-carbonyl)-amino]-5-(3-chloro-biphenyl-4-yl)-2-hydroxy-pentanoic acid], for which the pKi was no less than 9.0.
Same read-out and setting: to `O=C(N[C@H](Cc1ccc(-c2ccccc2)cc1Cl)C[C@@H](O)C(=O)O)c1cc(-c2cccnc2)n[nH]1` [Example 20-8, (2R,4R)-5-(3-Chloro-biphenyl-4-yl)-2-hydroxy-4-[(5-pyridin-3-yl-2H-pyrazole-3-carbonyl)-amino]-pentanoic acid] belongs no less than 9.0.
Consider `O=C(N[C@H](Cc1ccc(-c2ccccc2)cc1Cl)C[C@@H](O)C(=O)O)c1cc(-c2ccccn2)n[nH]1` [Example 20-9, (2R,4R)-5-(3-Chloro-biphenyl-4-yl)-2-hydroxy-4-[(5-pyridin-2-yl-2H-pyrazole-3-carbonyl)-amino]-pentanoic acid], for which the Ki was 1.26 to 10 nM.
With `O=C(N[C@H](Cc1ccc(-c2cccc(Cl)c2)cc1Cl)C[C@@H](O)C(=O)O)c1cnn[nH]1` [Example 21-1, (2R,4R)-5-(3,3′-Dichlorobiphenyl-4-yl)-2-hydroxy-4-[(3H-[1,2,3]triazole-4-carbonyl)-amino]-pentanoic acid], the pKi is on record as no less than 9.0.
On to `COCc1cc(C(=O)N[C@H](Cc2ccc(-c3cccc(Cl)c3)cc2Cl)C[C@@H](O)C(=O)O)[nH]n1` [Example 21-2, (2R,4R)-5-(3,3′-Dichloro-biphenyl-4-yl)-2-hydroxy-4-[(5-methoxymethyl-2H-pyrazole-3-carbonyl)-amino]-pentanoic acid], for which the negative-log Ki (pKi) was no less than 9.0.
Still for that read-out and setting: to `O=C(N[C@H](Cc1ccc(-c2cc(Cl)ccc2F)cc1)C[C@@H](O)C(=O)O)c1ccc2nnn(O)c2c1` [Example 22, (2R,4R)-5-(5′-Chloro-2′-fluorobiphenyl-4-yl)-2-hydroxy-4-[(3-hydroxy-3H-benzotriazole-5-carbonyl)-amino]-pentanoic Acid] belongs no less than 9.0.
Still for that read-out and setting: under `Cc1cccc(-c2ccc(C[C@@H](C[C@H](O)C(=O)O)NC(=O)c3ccc4nnn(O)c4c3)cc2)c1` [Example 23-1, (2S,4S)-2-Hydroxy-4-[(3-hydroxy-3H-benzotriazole-5-carbonyl)-amino]-5-(3′-methyl-biphenyl-4-yl)-pentanoic acid] stands no less than 9.0.
On the same count and under the same terms, under `COc1ccccc1-c1ccc(C[C@@H](C[C@H](O)C(=O)O)NC(=O)c2ccc3nnn(O)c3c2)cc1` [Example 23-3, (2S,4S)-2-Hydroxy-4-[(3-hydroxy-3H-benzotriazole-5-carbonyl)-amino]-5-(2′-methoxy-biphenyl-4-yl)-pentanoic acid] stands no less than 9.0; under `O=C(N[C@@H](Cc1ccc(-c2cc(Cl)ccc2Cl)cc1)C[C@H](O)C(=O)O)c1ccc2nnn(O)c2c1` [Example 23-4, (2S,4S)-5-(2′,5′-Dichlorobiphenyl-4-yl)-2-hydroxy-4-[(3-hydroxy-3H-benzotriazole-5-carbonyl)-amino]-pentanoic acid], no less than 9.0; under `O=C(N[C@@H](Cc1ccc(-c2cc(O)cc(Cl)c2)cc1)C[C@H](O)C(=O)O)c1ccc2nnn(O)c2c1` [Example 23-8, (2S,4S)-5-(3′-Chloro-5′-hydroxy-biphenyl-4-yl)-2-hydroxy-4-[(3-hydroxy-3H-benzotriazole-5-carbonyl)-amino]-pentanoic acid], no less than 9.0.
